In assay [1] the test system is experimental wounds of streptozotocin-induced diabetic rats. Briefly: Wound healing in experimental wounds of streptozotocin-induced diabetic rats. The class given is in vivo, rat. The note with it: 6-week streptozotocin-induced diabetic rats treated with 20 mg/kg, compared with normal untreated rats; FIGS. 5, 6A-6B. The procedure:
The blood glucose levels of streptozotocin-induced diabetic rats was maintained at between 300-350 mg/dL with subcutaneous injection of insulin. Experimental wounds, having a diameter of […] and including the panniculus carnosus muscle, were made on the backs of diabetic rats. Wounds were serially photographed with a digital camera at the time of wounding, and then again every three days after wound induction until the time of closure, and the area of the wound measured (and expressed as cm^2). Wound closure was defined as complete epithelialization. The degree of wound contraction is calculated as: {(size of wound at day 0−size of wound at day X)/size of wound at day 0)}×100. Diabetic rats were administered 20 mg/kg of the aldose reductase inhibitor 3(4,5,7-triflurobenzothiazol-2-yl)methyl-indole-N-acetic acid at either the time of diabetes induction (simulating treatment prior to diabetic complications) or 6 weeks after diabetes induction (simulating treatment at the time of diabetic complications).

In assay [2] the test system is full-thickness skin wounds of db/db mice. As to conditions: three doses on days 0, 1 and 2 under Tegederm wound dressing, dose of 10-1000 nM; cited from earlier work.

The source of these data is patent US20020012630A1, “Methods for testing compounds useful in treating diabetic complications” (priority 2000, published 2002).

Where no end group is shown, it is not given here.

For `O=C(O)Cn1cc(Cc2nc3c(F)c(F)cc(F)c3s2)c2ccccc21` [3-(4,5,7-triflurobenzothiazol-2-yl)methyl-indole-N-acetic acid], in assay [1], the “wound healing rate (wound size and wound contraction)” value is given as “healed at the same rate as the wounds in normal rats”.

In the case of “Substance P (RPKPQQFFGLM-NH2; ends and bridges not checked; UniProt P20366 58-68, looked up) [SP]”, in assay [2], the time of healing result was “improved time of healing”.
